Data reported in ChEMBL document CHEMBL3046005, “New Insecticidal 4-Acetoxy-2-alkenylquinolines” (1996).

Assays:
Format in all cases: functional
[1] = tested on: Bombyx mori; assay: Insecticidal activity against Bombyx mori larvae assessed as mortality at 2.5 ug administered topically measured after 48 hr
[2] = tested on: Bombyx mori; assay: Insecticidal activity against Bombyx mori larvae assessed as mortality at 40 ug administered topically measured after 48 hr
[3] = tested on: Bombyx mori; assay: Insecticidal activity against Bombyx mori larvae assessed as mortality at 10 ug administered topically measured after 48 hr
[4] = tested on: Plutella xylostella; assay: Insecticidal activity against Plutella xylostella (diamondback moth) larvae assessed as mortality at 250 ppm by leaf spray method
[5] = tested on: Laodelphax striatellus; assay: Insecticidal activity against Laodelphax striatella (small brown planthopper) larvae assessed as mortality at 1000 ppm by leaf spray method
[6] = tested on: Plutella xylostella; assay: Insecticidal activity against Plutella xylostella (diamondback moth) larvae assessed as mortality at 1000 ppm by leaf spray method
[7] = tested on: Bombyx mori; assay: Insecticidal activity against Bombyx mori larvae assessed as mortality at 0.63 ug administered topically measured after 48 hr
[8] = tested on: Tetranychus urticae; assay: Insecticidal activity against Tetranychus urticae (two-spotted spider mite) eggs assessed as mortality at 250 ppm by leaf spray method
[9] = tested on: Tetranychus urticae; assay: Insecticidal activity against Tetranychus urticae (two-spotted spider mite) eggs assessed as mortality at 500 ppm by leaf spray method
[10] = tested on: Laodelphax striatellus; assay: Insecticidal activity against Laodelphax striatella (small brown planthopper) larvae assessed as mortality at 500 ppm by leaf spray method
[11] = tested on: Plutella xylostella; assay: Insecticidal activity against Plutella xylostella (diamondback moth) larvae assessed as mortality at 500 ppm by leaf spray method
[12] = tested on: Laodelphax striatellus; assay: Insecticidal activity against Laodelphax striatella (small brown planthopper) larvae assessed as mortality at 250 ppm by leaf spray method
[13] = tested on: Tetranychus urticae; assay: Insecticidal activity against Tetranychus urticae (two-spotted spider mite) eggs assessed as mortality at 1000 ppm by leaf spray method

With `CCCCC/C=C/C=C/c1nc2ccccc2c(OC(C)=O)c1C` as the compound, how does the Activity [1] read?
The Activity was 0%.

What about the Activity [2] of the same compound?
The Activity was 100%.

What about the Activity [3] of the same compound?
The Activity was 0%.

Which results are given for `CCCCCCC/C=C\c1nc2ccccc2c(OC(C)=O)c1C`?
Activity [4]: 100%; Activity [5]: 100%; Activity [1]: 100%; Activity [2]: 100%; Activity [6]: 100%; Activity [7]: 65%; Activity [8]: 68.2%; Activity [9]: 100%; Activity [10]: 94%; Activity [11]: 100%; Activity [12]: 76%; Activity [3]: 100%; Activity [13]: 100%

Which results are given for `CCCCCC/C=C/Cc1[nH]c2ccccc2c(=O)c1C`?
Activity [1]: 0%; Activity [2]: 20%; Activity [3]: 0%

Which Activity [1] does the source give for `CCCCCC/C=C/C(O)c1nc2ccccc2c(O)c1C` (configuration not stated) here?
The Activity was 0%.

And the Activity [2]?
The Activity was 5%.

And the Activity [3]?
The Activity was 0%.

With `CCCCCCC/C=C/c1nc2ccccc2c(OC(C)=O)c1C` as the compound, how does the Activity [1] read?
Its Activity is 100%.

And the Activity [2]?
Its Activity is 100%.

What about the Activity [7] of the same compound?
The Activity was 0%.

What about the Activity [3] of the same compound?
The Activity was 100%.

For `CCCCCC/C=C/C(O)c1nc2ccccc2c(OC(C)=O)c1C` (configuration not stated), which Activity [1] is on record?
The Activity was 0%.

And the Activity [2]?
The Activity was 85%.

What about the Activity [3] of the same compound?
Its Activity is 10%.

Which results are given for `CCCCCC/C=C/Cc1nc2ccccc2c(OC(C)=O)c1C`?
Activity [1]: 100%; Activity [2]: 100%; Activity [7]: 15%; Activity [3]: 100%

Which Activity [1] does the source give for `CCCCCCC/C=C/c1nc2ccccc2c(O)c1C` here?
Its Activity is 0%.

And the Activity [2]?
Its Activity is 0%.

And the Activity [3]?
The Activity was 0%.

How did the Activity [1] turn out when `CCCCC/C=C/C=C/c1nc2ccccc2c(O)c1C` was run?
Its Activity is 0%.

What about the Activity [2] of the same compound?
Its Activity is 0%.

What about the Activity [3] of the same compound?
The Activity was 0%.

Which Activity [1] does the source give for `CCCCCCC/C=C\c1nc2ccccc2c(O)c1C` here?
Its Activity is 0%.

What about the Activity [2] of the same compound?
The Activity was 70%.

And the Activity [3]?
Its Activity is 20%.
